The source of these data is US20250197374A1, “WEE1 DEGRADING COMPOUNDS AND USES THEREOF” (BRISTOL-MYERS SQUIBB COMPANY, priority 2023, published 2025).

The target of the assay is T1, WEE1 (Homo sapiens, UniProt P30291+Q96SW2).
T1 construct: C-terminal ePL-tagged (DiscoverX, Fremont, CA) full-length WEE1 expression construct; expressed in transfected cells; host or cells: LentiX-HEK293T (Invitrogen), lentivirally transduced; the cells also over-express GSPT1-GN
The assay can be described thus: WEE1-ePL degradation assay (293T-LentiX, InCELL Hunter luminescence, 4 hr). The note with it: for 293T-LentiX WEE1-ePL Degradation 4 hr YMin (%): lower limit of fit, % of DMSO control signal remaining; for DC50: LentiX-HEK293T cells expressing WEE1-ePL, 4 hr incubation, read-out: 293T-LentiX WEE1-ePL Degradation 4 hr EC50. In kind it is cell-based. The text has this:
To generate LentiX-WEE1-ePL-GSPT1-ND cells for the WEE1 degradation assay, LentiX-HEK293T (Invitrogen) were tranduced by lentivirus with a C-terminal ePL-tagged (DiscoverX, Fremont, CA) full-length WEE1 expression construct. A separate lentiviral construct was introduced to over-express a mutated form of GSPT1 (NP_002085), termed GSPT1-GN, which contains a G575N mutation and is further truncated in the first 158 amino acids. GSPT1-GN is functional but not degradable by Cereblon. Cells were selected and maintained in complete DMEM media (DMEM, 10% Heat Inactivated FBS, 400 μg/mL Geneticin, and 1 μg/mL puromycin at 37 C and 5% CO2). Cells were passaged every 3-4 days by reseeding 1×10^6 cells in a T150 flask.
Cells were dispensed into 384-well white plates (Corning #3570, NY) that were pre-spotted with compounds using an acoustic dispenser (Echo acoustic transfer system, Beckman Coulter Life Sciences, Carlsbad, CA) as a 10-point dose-response curve with a 3-fold dilution starting at either 1 uM or 10 uM and including a DMSO control. Twenty-five microliters of media containing 2500 cells for LentiX-oeWEE1-ePL was dispensed per well. Assay plates were incubated at 37° C. with 5% CO2 for four hours (WEE1) After incubation, 25 μL of the InCELL Hunter™ Detection Reagent Working Solution (DiscoverX, Fremont, CA) was added to each well and incubated at room temperature for 30 minutes protected from light. After 30 minutes, luminescence was read on a PHERAstar luminometer (Cary, NC).
To determine the half-maximal effective concentration (EC50) values for WEE1-ePL degradation, a four parameter logistic model was used: (Sigmoidal Dose-Response Model) (FIT=(A+((B−A)/1+((C/x)^D)))) where C is the inflection point (EC50), D is the Hill slope, and A and B are the low and high limits of the fit respectively). The lower limit of the fit (value A) is referred to as Ymin. […] The maximum limit constraint, Ymax, is similarly derived using DMSO control. The curves were processed and evaluated using Activity Base (IDBS, Alameda, CA) or using Dotmatics (Boston, MA).

The structures appear in SMILES notation.

T1 sequence (P30291 whole entry): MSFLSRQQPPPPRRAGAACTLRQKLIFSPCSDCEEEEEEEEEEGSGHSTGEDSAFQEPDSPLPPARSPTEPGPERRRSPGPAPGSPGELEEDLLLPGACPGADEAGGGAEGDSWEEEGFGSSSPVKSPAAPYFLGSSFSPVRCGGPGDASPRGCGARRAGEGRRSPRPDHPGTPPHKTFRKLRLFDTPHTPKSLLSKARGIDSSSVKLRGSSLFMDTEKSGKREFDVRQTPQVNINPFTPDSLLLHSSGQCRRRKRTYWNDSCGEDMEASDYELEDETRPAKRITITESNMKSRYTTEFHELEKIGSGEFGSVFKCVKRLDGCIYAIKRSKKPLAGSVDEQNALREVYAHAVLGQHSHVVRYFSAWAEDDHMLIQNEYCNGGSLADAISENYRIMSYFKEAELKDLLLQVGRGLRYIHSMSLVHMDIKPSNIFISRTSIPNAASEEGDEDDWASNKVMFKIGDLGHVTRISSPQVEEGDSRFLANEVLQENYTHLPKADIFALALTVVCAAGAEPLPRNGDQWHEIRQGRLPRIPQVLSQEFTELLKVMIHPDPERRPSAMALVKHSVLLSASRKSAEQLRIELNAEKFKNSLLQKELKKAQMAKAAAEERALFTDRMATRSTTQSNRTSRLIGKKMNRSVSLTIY
T1 sequence (Q96SW2 whole entry): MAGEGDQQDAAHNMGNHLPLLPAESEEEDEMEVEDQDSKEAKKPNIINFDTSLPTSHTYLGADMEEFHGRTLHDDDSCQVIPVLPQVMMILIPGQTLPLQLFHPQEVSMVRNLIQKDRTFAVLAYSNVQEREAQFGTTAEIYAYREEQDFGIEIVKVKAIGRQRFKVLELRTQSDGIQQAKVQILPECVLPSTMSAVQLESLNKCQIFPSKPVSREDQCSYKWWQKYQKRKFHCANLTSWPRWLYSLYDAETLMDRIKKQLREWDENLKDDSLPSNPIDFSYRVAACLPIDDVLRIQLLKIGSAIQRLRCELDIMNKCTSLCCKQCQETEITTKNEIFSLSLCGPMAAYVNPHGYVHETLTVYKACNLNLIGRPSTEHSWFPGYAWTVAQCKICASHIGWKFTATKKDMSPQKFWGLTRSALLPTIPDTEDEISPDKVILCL
T1 sequence (Q16531 whole entry partner): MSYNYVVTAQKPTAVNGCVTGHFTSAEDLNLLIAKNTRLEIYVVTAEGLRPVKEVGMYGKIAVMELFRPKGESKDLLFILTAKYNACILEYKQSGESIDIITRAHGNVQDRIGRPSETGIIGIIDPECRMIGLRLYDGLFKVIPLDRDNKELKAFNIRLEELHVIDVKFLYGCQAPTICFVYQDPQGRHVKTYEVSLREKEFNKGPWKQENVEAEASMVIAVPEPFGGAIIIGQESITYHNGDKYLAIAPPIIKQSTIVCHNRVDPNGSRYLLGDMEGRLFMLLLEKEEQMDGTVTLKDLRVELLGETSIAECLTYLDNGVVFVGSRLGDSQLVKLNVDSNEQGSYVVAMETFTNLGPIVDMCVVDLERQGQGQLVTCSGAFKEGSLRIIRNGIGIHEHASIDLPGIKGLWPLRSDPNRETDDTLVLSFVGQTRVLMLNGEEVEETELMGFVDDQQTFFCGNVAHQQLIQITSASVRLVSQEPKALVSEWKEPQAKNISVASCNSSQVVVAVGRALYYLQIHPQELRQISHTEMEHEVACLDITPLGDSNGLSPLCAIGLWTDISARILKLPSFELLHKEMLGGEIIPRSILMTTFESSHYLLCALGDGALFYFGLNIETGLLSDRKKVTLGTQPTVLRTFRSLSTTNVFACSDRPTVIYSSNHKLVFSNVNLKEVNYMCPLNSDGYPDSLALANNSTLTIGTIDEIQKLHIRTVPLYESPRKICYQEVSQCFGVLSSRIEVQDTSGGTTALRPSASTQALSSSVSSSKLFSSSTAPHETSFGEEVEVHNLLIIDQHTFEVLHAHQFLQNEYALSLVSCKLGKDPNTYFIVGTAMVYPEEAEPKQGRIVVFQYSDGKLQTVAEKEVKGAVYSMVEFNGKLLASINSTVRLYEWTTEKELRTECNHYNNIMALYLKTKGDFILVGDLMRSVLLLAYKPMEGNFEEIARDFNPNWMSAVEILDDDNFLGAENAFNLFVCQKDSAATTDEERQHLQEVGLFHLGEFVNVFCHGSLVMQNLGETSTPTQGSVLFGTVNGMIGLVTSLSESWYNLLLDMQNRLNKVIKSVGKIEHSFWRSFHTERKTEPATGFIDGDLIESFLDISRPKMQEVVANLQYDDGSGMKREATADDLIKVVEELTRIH

On to `Cc1cc([C@@H]2CN(Cc3cc(F)c4nc(C5CCOCC5)ccc4c3)C[C@H]2Oc2ccc3c(c2)CN([C@H]2CCC(=O)NC2=O)C3=O)ccn1` (relative stereo) [Example 126, (3S)-3-(5-{[(3S*,4R*)-1-{[8-fluoro-2-(oxan-4-yl)quinolin-6-yl]methyl}-4-(2-methylpyridin-4-yl)pyrrolidin-3-yl]oxy}-1-oxo-2,3-dihydro-1H-isoindol-2-yl)piperidine-2,6-dione], for which the “293T-LentiX WEE1-ePL Degradation 4 hr YMin (%)” value stood at 90.0%.

As to `CC(C)(C)C[C@@H]1CN(Cc2cc(F)c3nc(C4CCOCC4)ccc3c2)C[C@H]1Oc1ccc2c(c1)CN([C@H]1CCC(=O)NC1=O)C2=O` (relative stereo) [Example 131, (3S)-3-(5-{[(3S*,4R*)-4-(2,2-dimethylpropyl)-1-{[8-fluoro-2-(oxan-4-yl)quinolin-6-yl]methyl}pyrrolidin-3-yl]oxy}-1-oxo-2,3-dihydro-1H-isoindol-2-yl)piperidine-2,6-dione], the “293T-LentiX WEE1-ePL Degradation 4 hr YMin (%)” value is 100.0%. As to `O=C1CCC(N2Cc3cc(O[C@@H]4CN(Cc5cc(F)c6nc(C7CCOCC7)ccc6c5)C[C@H]4OC4COC4)ccc3C2=O)C(=O)N1` (relative stereo) [Example 133, rel-3-(5-(((3R,4R)-1-((8-fluoro-2-(tetrahydro-2H-pyran-4-yl)quinolin-6-yl)methyl)-4-(oxetan-3-yloxy)pyrrolidin-3-yl)oxy)-1-oxoisoindolin-2-yl)piperidine-2,6-dione], the DC50 amounted to 70 nM and the “293T-LentiX WEE1-ePL Degradation 4 hr YMin (%)” value is 58.0%. As for `CC(C)(C)C[C@H]1CN(Cc2cc(F)c3nc(C4CCOCC4)ccc3c2)C[C@@H]1Oc1ccc2c(c1)CN([C@H]1CCC(=O)NC1=O)C2=O` (relative stereo) [Example 150, (3S)-3-(5-{[(3R*,4S*)-4-(2,2-dimethylpropyl)-1-{[8-fluoro-2-(oxan-4-yl)quinolin-6-yl]methyl}pyrrolidin-3-yl]oxy}-1-oxo-2,3-dihydro-1H-isoindol-2-yl)piperidine-2,6-dione], the DC50 was determined as 10 nM and the “293T-LentiX WEE1-ePL Degradation 4 hr YMin (%)” value is given as 48.5%.

For the compound `Cc1cc([C@H]2CN(Cc3cc(F)c4nc(C5CCOCC5)ccc4c3)C[C@@H]2Oc2ccc3c(c2)CN([C@H]2CCC(=O)NC2=O)C3=O)ccn1` (relative stereo) [Example 151, (3S)-3-(5-{[(3R*,4S*)-1-{[8-fluoro-2-(oxan-4-yl)quinolin-6-yl]methyl}-4-(2-methylpyridin-4-yl)pyrrolidin-3-yl]oxy}-1-oxo-2,3-dihydro-1H-isoindol-2-yl)piperidine-2,6-dione], the DC50 was 11 nM and the “293T-LentiX WEE1-ePL Degradation 4 hr YMin (%)” value is on record as 22.4%.

`O=C1CCC(N2Cc3cc(O[C@H]4CN(Cc5cc(F)c6nc(C7CCOCC7)ccc6c5)C[C@@H]4OC4COC4)ccc3C2=O)C(=O)N1` (relative stereo) [Example 152, rel-3-(5-(((3S,4S)-1-((8-fluoro-2-(tetrahydro-2H-pyran-4-yl)quinolin-6-yl)methyl)-4-(oxetan-3-yloxy)pyrrolidin-3-yl)oxy)-1-oxoisoindolin-2-yl)piperidine-2,6-dione]: the “293T-LentiX WEE1-ePL Degradation 4 hr YMin (%)” value came to 82.2%. On the same count and under the same terms, next, `COC[C@@H]1CN(Cc2ccc3ncc(N4CCOCC4)cc3c2F)C[C@H]1Oc1ccc2c(c1)CN([C@H]1CCC(=O)NC1=O)C2=O` [Example 31, (3S)-3-(5-{[(3S,4S)-1-{[5-fluoro-3-(morpholin-4-yl)quinolin-6-yl]methyl}-4-(methoxymethyl)pyrrolidin-3-yl]oxy}-1-oxo-2,3-dihydro-1H-isoindol-2-yl)piperidine-2,6-dione]: 20.1%. Regarding `COC[C@@H]1CN(Cc2cc(F)c3cc(N4CCOCC4)ncc3c2)C[C@H]1Oc1ccc2c(c1)CN([C@H]1CCC(=O)NC1=O)C2=O` [Example 49, (3S)-3-(5-{[(3S,4S)-1-{[5-fluoro-3-(morpholin-4-yl)isoquinolin-7-yl]methyl}-4-(methoxymethyl)pyrrolidin-3-yl]oxy}-1-oxo-2,3-dihydro-1H-isoindol-2-yl)piperidine-2,6-dione], the DC50 worked out at 2 nM and the “293T-LentiX WEE1-ePL Degradation 4 hr YMin (%)” value turned out to be 24.5%. On the same counts, the results for `COC[C@@H]1CN(Cc2ccc3nc(N4CCN(C(C)=O)C5(COC5)C4)ncc3c2)C[C@H]1Oc1ccc2c(c1)CN([C@H]1CCC(=O)NC1=O)C2=O` [Example 95, (3S)-3-(5-{[(3S,4S)-1-[(2-{5-acetyl-2-oxa-5,8-diazaspiro[3.5]nonan-8-yl}quinazolin-6-yl)methyl]-4-(methoxymethyl)pyrrolidin-3-yl]oxy}-1-oxo-2,3-dihydro-1H-isoindol-2-yl)piperidine-2,6-dione] are 2 nM and 20.9%. Taken in the same sequence, the figures for `COC[C@@H]1CN(Cc2cc(F)c3nc(C)c(N4CCOCC4)cc3c2)C[C@H]1Oc1ccc2c(c1)CN([C@H]1CCC(=O)NC1=O)C2=O` [Example 100, (3S)-3-(5-{[(3S,4S)-1-{[8-fluoro-2-methyl-3-(morpholin-4-yl)quinolin-6-yl]methyl}-4-(methoxymethyl)pyrrolidin-3-yl]oxy}-1-oxo-2,3-dihydro-1H-isoindol-2-yl)piperidine-2,6-dione] were 1 nM and 24.6%. For the compound `COC[C@@H]1CN(Cc2ccc3cc(N4CCOCC4)cnc3c2F)C[C@H]1Oc1ccc2c(c1)CN([C@H]1CCC(=O)NC1=O)C2=O` [Example 101, (3S)-3-(5-{[(3S,4S)-1-{[8-fluoro-3-(morpholin-4-yl)quinolin-7-yl]methyl}-4-(methoxymethyl)pyrrolidin-3-yl]oxy}-1-oxo-2,3-dihydro-1H-isoindol-2-yl)piperidine-2,6-dione], the DC50 is 3 nM and the “293T-LentiX WEE1-ePL Degradation 4 hr YMin (%)” value came to 33.0%. As for `COC[C@@H]1CN(Cc2cc3ccc(N4CCN(C(C)=O)CC4)cc3c(F)n2)C[C@H]1Oc1ccc2c(c1)CN([C@H]1CCC(=O)NC1=O)C2=O` [Example 124, (3S)-3-(5-{[(3S,4S)-1-{[7-(4-acetylpiperazin-1-yl)-1-fluoroisoquinolin-3-yl]methyl}-4-(methoxymethyl)pyrrolidin-3-yl]oxy}-1-oxo-2,3-dihydro-1H-isoindol-2-yl)piperidine-2,6-dione], the “293T-LentiX WEE1-ePL Degradation 4 hr YMin (%)” value was 25.4%.

For `O=C1CC[C@H](N2Cc3cc(O[C@@H]4CN(Cc5cc(F)c6nc(C7CCOCC7)ccc6c5)C[C@H]4OCC4CC4)ccc3C2=O)C(=O)N1` [Example 125, (3S)-3-(5-{[(3R,4R)-4-(cyclopropyl-methoxy)-1-{[8-fluoro-2-(oxan-4-yl)quinolin-6-yl]methyl}pyrrolidin-3-yl]oxy}-1-oxo-2,3-dihydro-1H-isoindol-2-yl)piperidine-2,6-dione], the DC50 turned out to be 4 nM and the “293T-LentiX WEE1-ePL Degradation 4 hr YMin (%)” value is reported as 29.2%.

Take `CC(C)O[C@@H]1CN(Cc2cc(F)c3nc(C4CCOCC4)ccc3c2)C[C@H]1Oc1ccc2c(c1)CN([C@H]1CCC(=O)NC1=O)C2=O` [Example 132, (3S)-3-(5-{[(3R,4R)-1-{[8-fluoro-2-(oxan-4-yl)quinolin-6-yl]methyl}-4-(propan-2-yloxy)pyrrolidin-3-yl]oxy}-1-oxo-2,3-dihydro-1H-isoindol-2-yl)piperidine-2,6-dione]: the DC50 turned out to be 5 nM and the “293T-LentiX WEE1-ePL Degradation 4 hr YMin (%)” value turned out to be 44.9%. On to `COC[C@@H]1CN(Cc2cc(F)c3nc(C4CCN(C5COC5)CC4)ncc3c2)C[C@H]1Oc1ccc2c(c1)CN([C@H]1CCC(=O)NC1=O)C2=O` [Example 144, (3S)-3-(5-{[(3S,4S)-1-({8-fluoro-2-[1-(oxetan-3-yl)piperidin-4-yl]quinazolin-6-yl}methyl)-4-(methoxymethyl)pyrrolidin-3-yl]oxy}-1-oxo-2,3-dihydro-1H-isoindol-2-yl)piperidine-2,6-dione], for which the DC50 came to 3 nM and the “293T-LentiX WEE1-ePL Degradation 4 hr YMin (%)” value was found to be 21.4%.
